For 17 compounds, IC50 results are on record in US20230092890A1, “1, 3, 4-Oxadiazole derivative compounds as histone deacetylase 6 inhibitor, and the pharmaceutical composition comprising the same” (Chong Kun Dang Pharmaceutical Corp., priority 2019, published 2023).

Assay [1] deals with T1, HDAC1 (Homo sapiens, UniProt Q13547).
T1 construct: purchased Enzolifesciences BML-AK511
Briefly: HDAC enzyme activity inhibition (in vitro), HDAC1 Fluorimetric Drug Discovery Assay Kit. As to conditions: samples at 100, 1000 and 10000 nM; 37° C. 60 minutes; fluorescence Ex 390, Em 460; read-out: HDAC1 IC50. The format is biochemical. A digest of the protocol: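 Fluorescence read-out (Ex 390/Em 460) after developer step, 30 min at 37° C, following a 60-min 37° C enzyme reaction. Test concentrations: HDAC1 kit, 100–10000 nM (three levels); recombinant human HDAC6, 0.1–1000 nM (five levels).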

Assay [2] deals with T2, HDAC6 human recombinant (Homo sapiens, UniProt Q9UBN7).
T2 construct: purchased Calbiochem 382180
T2 sequence (Q9UBN7 1-1215): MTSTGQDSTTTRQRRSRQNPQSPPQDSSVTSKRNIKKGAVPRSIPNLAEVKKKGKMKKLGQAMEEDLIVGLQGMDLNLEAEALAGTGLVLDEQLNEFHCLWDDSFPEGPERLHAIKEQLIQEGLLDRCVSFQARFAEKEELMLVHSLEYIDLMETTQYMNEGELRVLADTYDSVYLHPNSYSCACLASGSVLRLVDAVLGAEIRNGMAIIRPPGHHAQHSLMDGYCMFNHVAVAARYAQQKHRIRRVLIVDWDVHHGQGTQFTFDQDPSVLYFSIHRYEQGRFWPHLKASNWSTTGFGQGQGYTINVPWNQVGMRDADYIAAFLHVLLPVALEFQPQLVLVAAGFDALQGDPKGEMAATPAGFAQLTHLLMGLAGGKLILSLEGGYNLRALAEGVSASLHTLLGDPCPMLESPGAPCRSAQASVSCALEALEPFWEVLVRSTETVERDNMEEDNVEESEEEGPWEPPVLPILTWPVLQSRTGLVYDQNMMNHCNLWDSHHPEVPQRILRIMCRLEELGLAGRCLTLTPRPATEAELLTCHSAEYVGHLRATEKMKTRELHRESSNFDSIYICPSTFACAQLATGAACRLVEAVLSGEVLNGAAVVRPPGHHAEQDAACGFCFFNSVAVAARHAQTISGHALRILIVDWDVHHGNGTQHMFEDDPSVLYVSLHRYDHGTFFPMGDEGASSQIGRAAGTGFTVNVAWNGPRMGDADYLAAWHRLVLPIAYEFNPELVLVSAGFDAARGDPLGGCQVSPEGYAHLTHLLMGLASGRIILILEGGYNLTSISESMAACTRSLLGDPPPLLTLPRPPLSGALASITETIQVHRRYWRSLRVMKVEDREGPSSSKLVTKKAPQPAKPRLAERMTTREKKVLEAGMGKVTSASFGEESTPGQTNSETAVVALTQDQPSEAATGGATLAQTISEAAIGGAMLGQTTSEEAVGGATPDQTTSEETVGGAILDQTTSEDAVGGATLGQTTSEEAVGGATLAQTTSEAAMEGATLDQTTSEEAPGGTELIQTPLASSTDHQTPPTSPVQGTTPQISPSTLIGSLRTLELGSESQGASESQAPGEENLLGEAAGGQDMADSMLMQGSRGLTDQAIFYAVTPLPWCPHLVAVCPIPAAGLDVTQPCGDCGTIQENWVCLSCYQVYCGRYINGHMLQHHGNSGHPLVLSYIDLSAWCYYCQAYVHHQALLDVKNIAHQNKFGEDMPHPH
Briefly: HDAC enzyme activity inhibition (in vitro), HDAC6 assay. The format is biochemical. As to conditions: samples at 0.1, 1, 10, 100 and 1000 nM; 37° C. 60 minutes; fluorescence Ex 390, Em 460; read-out: HDAC6 IC50. A digest of the protocol: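 Fluorescence (Ex 390, Em 460) read after a 37° C, 60 min enzyme reaction and a further 30 min developer step at 37° C. Uses recombinant human HDAC6; HDAC1 arm dosed at 100, 1000, 10000 nM.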

T1 sequence (Q13547 whole entry): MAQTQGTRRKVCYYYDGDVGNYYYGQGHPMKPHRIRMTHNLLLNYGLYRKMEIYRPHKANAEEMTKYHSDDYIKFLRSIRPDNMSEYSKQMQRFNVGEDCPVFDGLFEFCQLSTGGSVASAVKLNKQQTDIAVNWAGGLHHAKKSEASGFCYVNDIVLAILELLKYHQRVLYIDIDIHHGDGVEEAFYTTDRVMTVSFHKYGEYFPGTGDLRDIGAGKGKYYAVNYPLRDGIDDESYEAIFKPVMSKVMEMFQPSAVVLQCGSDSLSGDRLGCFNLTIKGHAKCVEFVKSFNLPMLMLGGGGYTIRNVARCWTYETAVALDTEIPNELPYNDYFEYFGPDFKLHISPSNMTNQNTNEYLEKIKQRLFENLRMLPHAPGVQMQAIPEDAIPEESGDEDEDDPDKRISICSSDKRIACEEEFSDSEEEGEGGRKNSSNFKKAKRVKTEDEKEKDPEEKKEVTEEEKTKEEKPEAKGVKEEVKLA

What is called IC50 is the point on the concentration scale where inhibition reaches its midpoint. Consider `Cn1c(=O)n(Cc2ccc(-c3nnc(C(F)F)o3)cn2)c2cc(F)c(N3CCN(C4COC4)CC3)cc21` [Compound 264, 1-((5-(5-(difluoromethyl)-1,3,4-oxadiazole-2-yl)pyridine-2-yl)methyl)-6-fluoro-3-methy 1-5-(4-(oxetan-3-yl)piperazine-1-yl)-1,3-dihydro-2H-benzo[d]imidazole-2-one], for which the IC50 in assay [1] is > 10 µM; in assay [2] it was 61 nM.
The corresponding values for `O=c1oc2cc(Cl)ccc2n1Cc1ccc(-c2nnc(C(F)F)o2)cn1` [Compound 265, 6-chloro-3-((5-(5-(difluoromethyl)-1,3,4-oxadiazole-2-yl)pyridine-2-yl)methyl)benzo[d]oxazole-2(3H)-one] are > 10 µM and 46 nM.
For the compound `Cn1c(=O)n(Cc2ccc(-c3nnc(C(F)F)o3)cn2)c2cc(F)c(N3CCN(C(=O)CO)CC3)cc21` [Compound 266, 1-((5-(5-(difluoromethyl)-1,3,4-oxadiazole-2-yl)pyridine-2-yl)methyl)-6-fluoro-5-(4-(2-hydroxyacetyl)piperazine-1-yl)-3-methyl-1,3-dihydro-2H-benzo[d]imidazole-2-one], the 50% inhibitory concentration (IC50) in assay [1] is > 10 µM; in assay [2], 39 nM.
Take `O=c1n(CCN2CCOCC2)c2cc(-c3cccnc3)c(F)cc2n1Cc1ccc(-c2nnc(C(F)F)o2)cn1` [Compound 267, 1-((5-(5-(difluoromethyl)-1,3,4-oxadiazole-2-yl)pyridine-2-yl)methyl)-6-fluoro-3-(2-morpholinoethyl)-5-(pyridine-3-yl)-1,3-dihydro-2H-benzo[d]imidazole-2-one]: the IC50 is > 10 µM in assay [1] and 42 nM in assay [2].
In the case of `CN1CC[C@H](n2c(=O)n(Cc3ccc(-c4nnc(C(F)F)o4)cn3)c3cc(F)c(-c4cccnc4)cc32)C1` [Compound 268, (S)-1-((5-(5-(difluoromethyl)-1,3,4-oxadiazole-2-yl)pyridine-2-yl)methyl)-6-fluoro-3-(1-methylpyrrolidine-3-yl)-5-(pyridine-3-yl)-1,3-dihydro-2H-benzo[d]imidazole-2-one], the figures for the IC50 in assay [1] and in assay [2] were > 10 µM and 20 nM, respectively.
In the case of `O=c1n(CCN2CCOCC2)c2cc(-c3cccc4[nH]ccc34)c(F)cc2n1Cc1ccc(-c2nnc(C(F)F)o2)cn1` [Compound 269, 1-((5-(5-(difluoromethyl)-1,3,4-oxadiazole-2-yl)pyridine-2-yl)methyl)-6-fluoro-5-(1H-indole-4-yl)-3-(2-morpholinoethyl)-1,3-dihydro-2H-benzo[d]imidazole-2-one], the figures for the half-maximal inhibitory concentration (IC50) in assay [1] and in assay [2] were > 10 µM and 6 nM, respectively.
Turning to `CN1CC[C@H](n2c(=O)n(Cc3ccc(-c4nnc(C(F)F)o4)cn3)c3cc(F)c(-c4cccc5[nH]ccc45)cc32)C1` [Compound 270, (S)-1-((5-(5-(difluoromethyl)-1,3,4-oxadiazole-2-yl)pyridine-2-yl)methyl)-6-fluoro-5-(1H-indole-4-yl)-3-(1-methylpyrrolidine-3-yl)-1,3-dihydro-2H-benzo[d]imidazole-2-one], the figures for the IC50 in assay [1] and in assay [2] were > 10 µM and 19 nM, respectively.
Regarding `O=c1n(Cc2ccc(-c3nnc(C(F)F)o3)cn2)c2cc(Cl)ccc2n1C1CCN(C2COC2)CC1` [Compound 271, 5-chloro-3-((5-(5-(difluoromethyl)-1,3,4-oxadiazole-2-yl)pyridine-2-yl)methyl)-1-(1-(oxetan-3-yl)piperidine-4-yl)-1,3-dihydro-2H-benzo[d]imidazole-2-one], the IC50 in assay [1] was > 10 µM; in assay [2], 27 nM.
On the same counts, the results for `CN1CC[C@@H](n2c(=O)n(Cc3ccc(-c4nnc(C(F)F)o4)cn3)c3cc(F)c(-c4ccncc4)cc32)C1` [Compound 272, (R)-1-((5-(5-(difluoromethyl)-1,3,4-oxadiazole-2-yl)pyridine-2-yl)methyl)-6-fluoro-3-(1-methylpyrrolidine-3-yl)-5-(pyridine-4-yl)-1,3-dihydro-2H-benzo[d]imidazole-2-one] are > 10 µM and 29 nM.
As to `CN1CC[C@@H](n2c(=O)n(Cc3ccc(-c4nnc(C(F)F)o4)cn3)c3cc(F)c(-c4cccc5[nH]ccc45)cc32)C1` [Compound 273, (R)-1-((5-(5-(difluoromethyl)-1,3,4-oxadiazole-2-yl)pyridine-2-yl)methyl)-6-fluoro-5-(1H-indole-4-yl)-3-(1-methylpyrrolidine-3-yl)-1,3-dihydro-2H-benzo[d]imidazole-2-one], the results for the IC50 in assay [1] and in assay [2] were > 10 µM and 14 nM, respectively.
Turning to `CN1CCC[C@@H](n2c(=O)n(Cc3ccc(-c4nnc(C(F)F)o4)cn3)c3cc(F)c(-c4cccnc4)cc32)C1` [Compound 274, (R)-1-((5-(5-(difluoromethyl)-1,3,4-oxadiazole-2-yl)pyridine-2-yl)methyl)-6-fluoro-3-(1-methylpiperidine-3-yl)-5-(pyridine-3-yl)-1,3-dihydro-2H-benzo[d]imidazole-2-one], the 50% inhibitory concentration (IC50) in assay [1] was > 10 µM; in assay [2] it was 12 nM.
Turning to `CN1CCC[C@@H](n2c(=O)n(Cc3ccc(-c4nnc(C(F)F)o4)cn3)c3cc(F)c(-c4ccncc4)cc32)C1` [Compound 275, (R)-1-((5-(5-(difluoromethyl)-1,3,4-oxadiazole-2-yl)pyridine-2-yl)methyl)-6-fluoro-3-(1-methylpiperidine-3-yl)-5-(pyridine-4-yl)-1,3-dihydro-2H-benzo[d]imidazole-2-one], the IC50 in assay [1] was > 10 µM; in assay [2] it was 16 nM.
For the compound `CN1CCC[C@@H](n2c(=O)n(Cc3ccc(-c4nnc(C(F)F)o4)cn3)c3cc(F)c(-c4cccc5[nH]ccc45)cc32)C1` [Compound 276, (R)-1-((5-(5-(difluoromethyl)-1,3,4-oxadiazole-2-yl)pyridine-2-yl)methyl)-6-fluoro-5-(1H-indole-4-yl)-3-(1-methylpiperidine-3-yl)-1,3-dihydro-2H-benzo[d]imidazole-2-one], the IC50 in assay [1] is > 10 µM; in assay [2] it was 15 nM.
As for `O=c1oc2cc(-c3cccnc3)c(F)cc2n1Cc1ccc(-c2nnc(C(F)F)o2)cn1` [Compound 277, 3-((5-(5-(difluoromethyl)-1,3,4-oxadiazole-2-yl)pyridine-2-yl)methyl)-5-fluoro-6-(pyridine-3-yl)benzo[d]oxazole-2(3H)-one], the values for the IC50 in assay [1] and in assay [2] were > 10 µM and 21 nM, respectively.
Regarding `O=c1oc2cc(-c3ccncc3)c(F)cc2n1Cc1ccc(-c2nnc(C(F)F)o2)cn1` [Compound 278, 3-((5-(5-(difluoromethyl)-1,3,4-oxadiazole-2-yl)pyridine-2-yl)methyl)-5-fluoro-6-(pyridine-4-yl)benzo[d]oxazole-2(3H)-one], the IC50 in assay [1] is > 10 µM; in assay [2], 17 nM.
On to `O=c1oc2cc(-c3cccc4[nH]ccc34)c(F)cc2n1Cc1ccc(-c2nnc(C(F)F)o2)cn1` [Compound 279, 3-((5-(5-(difluoromethyl)-1,3,4-oxadiazole-2-yl)pyridine-2-yl)methyl)-5-fluoro-6-(1H-indole-4-yl)benzo[d]oxazole-2(3H)-one], for which the half-maximal inhibitory concentration (IC50) in assay [1] was > 10 µM; in assay [2], 15 nM.
For `O=c1n(Cc2ccc(-c3nnc(C(F)F)o3)cn2)c2ccc(-c3cccnc3)cc2n1C1CCN(C2COC2)CC1` [Compound 280, 1-((5-(5-(difluoromethyl)-1,3,4-oxadiazole-2-yl)pyridine-2-yl)methyl)-3-(1-(oxetan-3-yl)piperidine-4-yl)-5-(pyridine-3-yl)-1,3-dihydro-2H-benzo[d]imidazole-2-one], the IC50 in assay [1] is > 10 µM; in assay [2] it was 18 nM.
